Data published in US20080051400A1, “Methods for treating or preventing anemia or thrombocytopenia using a triheterocyclic compound” (Gemin X Biotechnologies Inc., priority 2006, published 2008).

What was measured:
[1] = test system: patients having chronic lymphocytic leukemia (CLL); experiment: Multi-center, double-blind, dose-ranging study in patients having chronic lymphocytic leukemia (CLL); assay type: in vivo, human
Method: In a multi-center, double-blind, dose-ranging study, two groups of patients having chronic lymphocytic leukemia (CLL) received intravenous doses of either 3.5-14 mg/m^2 of the mesylate salt of Compound 1 administered as a 1-hour infusion, or a 20-40 mg/m2 dose via a 3-hour infusion. These infusions were administered over a period of several weeks to several months.

[2] = test system: patients having myelodysplastic syndromes (MDS); experiment: Multi-center, open label, dose escalation study in patients having myelodysplastic syndromes (MDS); assay type: in vivo, human
Method: In a multi-center, open label, dose escalation study, a group of eight patients having myelodysplastic syndromes (MDS) received intravenous doses of 7-40 mg/m^2 of the mesylate salt of Compound 1 administered as a 24-hour infusion every two weeks. These infusions were administered over a period of several weeks to several months, the first cycle of infusion was administered in a clinical unit but the subsequent four cycles were administered in the ambulatory setting using portable infusion pumps.

SMILES: COC1=CC(c2cc3ccccc3[nH]2)=N/C1=C\c1[nH]c(C)cc1C [Compound 1]
- anemic patients who showed significant hemoglobin elevation ([1]; CLL patients with initial hemoglobin counts of less than 11 g/dL, mesylate salt i.v. 3.5-40 mg/m^2): three out of eleven anemic patients
- patients having thrombocytopenia who showed significant increases in platelet count ([1]; CLL patients with initial platelet counts less than 150×10^9/L, mesylate salt i.v. 3.5-14 mg/m^2 as 1-hour infusion or 20-40 mg/m2 as 3-hour infusion, over several weeks to several months): Four patients out of fourteen patients
- patients becoming transfusion independent (hemoglobin responders) ([1]; among the three anemic CLL patients with hemoglobin elevation, FIG. 1): two of the patients
- increase in platelet count in responding patients ([1]; four responding thrombocytopenic CLL patients, mesylate salt i.v. 3.5-40 mg/m^2): over 50%
- patients who showed hematological improvement in hemoglobin levels ([2]; MDS patients, mesylate salt i.v. 7-40 mg/m^2 as 24-hour infusion every two weeks, FIG. 2A): Three out of eight patients
- patients who showed platelet count elevation ([2]; MDS patients, mesylate salt i.v. 7-40 mg/m^2 as 24-hour infusion every two weeks, FIG. 2B, patient 3 was not thrombocytopenic at start): these three patients showed platelet count elevation
- patients becoming transfusion independent (hemoglobin responders) ([2]; among the three MDS patients with hemoglobin improvement, FIG. 2A): two of the patients
- patients becoming transfusion independent (platelet responders) ([2]; among the three MDS patients with platelet count elevation, FIG. 2B): one of the patients
